In PubChem BioAssay AID180 (DTP/NCI, 2004):
Where “and” joins values, the source holds several entries; their conditions need not be identical. Equal entries are not always repeated.

Tested on: BDF1 mice, Adenocarcinoma 755 s.c., tumor weight T/C
Assay: NCI In Vivo Anticancer Drug Screen. Data for tumor model Adenocarcinoma 755 (subcutaneous) in B6D2F1 (BDF1) mice
Details: endpoint: mean tumor weight, higher = larger tumour
In short: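 Readout: T/C, i.e. treated-group measurement over vehicle-control measurement. Endpoint is survival or tumor size in tumor-bearing mice given compound.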

[1] = dose: 12.5 mg/kg/injection, schedule: Q01DX011 (ip), vehicle: saline
[2] = dose: 25.0 mg/kg/injection, schedule: Q01DX011 (ip), vehicle: saline
[3] = dose: 50.0 mg/kg/injection, schedule: Q01DX011 (ip), vehicle: saline
[4] = dose: 50.0 mg/kg/injection, schedule: Q01DX011 (ip), vehicle: carboxymethylcellulose (CMC)
[5] = dose: 1.5 mg/kg/injection, schedule: Q01DX011 (ip), vehicle: carboxymethylcellulose (CMC)
[6] = dose: 250.0 mg/kg/injection, schedule: Q01DX011 (ip), vehicle: carboxymethylcellulose (CMC)

For `CN1CC[C@]23c4c5ccc(O)c4O[C@H]2C(=O)CC[C@@]3(O)[C@H]1C5`, the T/C (dose: 4.5 mg/kg/injection, schedule: Q01DX011 (ip), vehicle: methylcellulose (MC)) was 61 % of control and 73 % of control and 74 % of control.
For `CC(=O)Oc1ccc2c(c1)CC[C@@H]1[C@@H]2CC[C@@]2(C)[C@H]1CC[C@]2(C)OC(C)=O`, the T/C (dose: 31.0 mg/kg/injection, schedule: Q01DX011 (sc), vehicle: steriod suspending solution) was 76 % of control, the T/C (dose: 62.5 mg/kg/injection, schedule: Q01DX011 (sc), vehicle: steriod suspending solution) was 64 % of control and the T/C (dose: 125.0 mg/kg/injection, schedule: Q01DX011 (sc), vehicle: steriod suspending solution) was 71 % of control. The T/C (dose: 250.0 mg/kg/injection, schedule: Q01DX011 (sc), vehicle: steriod suspending solution) was 44 % of control.
With `N#CCSc1nc(N)nc2nc[nH]c12` the T/C (dose: 0.5 mg/kg/injection, schedule: Q01DX011 (ip), vehicle: carboxymethylcellulose (CMC)) was 82 % of control, the T/C (dose: 1.0 mg/kg/injection, schedule: Q01DX011 (ip), vehicle: carboxymethylcellulose (CMC)) was 63 % of control and the T/C (dose: 2.0 mg/kg/injection, schedule: Q01DX011 (ip), vehicle: carboxymethylcellulose (CMC)) was 70 % of control.
`CC1CN1P(=O)(N1CCCC1)N1CC1C` (stereo not drawn) was tested, and the T/C (dose: 6.3 mg/kg/injection, schedule: Q01DX011 (ip), vehicle: saline) was 73 % of control, the T/C [1] was 58 % of control and the T/C [2] was 19 % of control and 20 % of control. For the same molecule, the T/C [3] was 2 % of control and 3 % of control.
With `c1nc(N2CC2)c2ncn(C3CCCCC3)c2n1` the T/C (dose: 12.5 mg/kg/injection, schedule: Q01DX011 (ip), vehicle: carboxymethylcellulose (CMC)) was 36 % of control and the T/C [4] was 94 % of control.
For `O=C1C(NC(=O)C2CCCCC2)=C(N2CC2)C(=O)C(NC(=O)C2CCCCC2)=C1N1CC1`, the T/C (dose: 43.75 mg/kg/injection, schedule: Q01DX011 (ip), vehicle: carboxymethylcellulose (CMC)) was 48 % of control, the T/C (dose: 44.0 mg/kg/injection, schedule: Q01DX011 (ip), vehicle: carboxymethylcellulose (CMC)) was 67 % of control and the T/C (dose: 44.0 mg/kg/injection, schedule: Q01DX011 (ip), vehicle: other) was 76 % of control. The T/C (dose: 87.5 mg/kg/injection, schedule: Q01DX011 (ip), vehicle: carboxymethylcellulose (CMC)) was 9 % of control and 30 % of control, the T/C (dose: 88.0 mg/kg/injection, schedule: Q01DX011 (ip), vehicle: other) was 21 % of control and the T/C (dose: 100.0 mg/kg/injection, schedule: Q01DX011 (ip), vehicle: carboxymethylcellulose (CMC)) was 104 % of control. The T/C (dose: 175.0 mg/kg/injection, schedule: Q01DX011 (ip), vehicle: carboxymethylcellulose (CMC)) was 12 % of control and 33 % of control, the T/C (dose: 175.0 mg/kg/injection, schedule: Q01DX011 (ip), vehicle: other) was 28 % of control and the T/C (dose: 200.0 mg/kg/injection, schedule: Q01DX011 (oral), vehicle: carboxymethylcellulose (CMC)) was 93 % of control. For the same molecule, the T/C (dose: 400.0 mg/kg/injection, schedule: Q01DX011 (oral), vehicle: carboxymethylcellulose (CMC)) was 50 % of control and the T/C (dose: 800.0 mg/kg/injection, schedule: Q01DX011 (oral), vehicle: carboxymethylcellulose (CMC)) was 68 % of control.
`COc1ccc(CSc2ncnc3nc[nH]c23)cc1` was tested, and the T/C [5] was 89 % of control, the T/C (dose: 3.0 mg/kg/injection, schedule: Q01DX011 (ip), vehicle: carboxymethylcellulose (CMC)) was 88 % of control and the T/C (dose: 6.0 mg/kg/injection, schedule: Q01DX011 (ip), vehicle: carboxymethylcellulose (CMC)) was 65 % of control. For the same molecule, the T/C (dose: 7.8 mg/kg/injection, schedule: Q01DX011 (ip), vehicle: methylcellulose (MC)) was 58 % of control, the T/C (dose: 15.6 mg/kg/injection, schedule: Q01DX011 (ip), vehicle: methylcellulose (MC)) was 13 % of control and the T/C (dose: 31.2 mg/kg/injection, schedule: Q01DX011 (ip), vehicle: methylcellulose (MC)) was 10 % of control.
With `CC1CN1P(=O)(Oc1ccccc1)N1CC1C` (stereo not drawn) the T/C [1] was 89 % of control and 106 % of control, the T/C [2] was 90 % of control and 78 % of control and the T/C [3] was 42 % of control and 50 % of control.
`ClCCn1cnc2c(SCc3ccccc3)ncnc21` was tested, and the T/C (dose: 0.5 mg/kg/injection, schedule: Q01DX011 (ip), vehicle: other) was 115 % of control, the T/C (dose: 0.5 mg/kg/injection, schedule: Q01DX011 (oral), vehicle: other) was 98 % of control and the T/C (dose: 1.0 mg/kg/injection, schedule: Q01DX011 (ip), vehicle: other) was 72 % of control. For the same molecule, the T/C (dose: 1.0 mg/kg/injection, schedule: Q01DX011 (oral), vehicle: other) was 79 % of control, the T/C (dose: 2.0 mg/kg/injection, schedule: Q01DX011 (ip), vehicle: other) was 67 % of control and the T/C (dose: 2.0 mg/kg/injection, schedule: Q01DX011 (oral), vehicle: other) was 72 % of control. For the same molecule, the T/C (dose: 4.0 mg/kg/injection, schedule: Q01DX011 (ip), vehicle: other) was 36 % of control, the T/C (dose: 4.0 mg/kg/injection, schedule: Q01DX011 (oral), vehicle: other) was 40 % of control and the T/C (dose: 8.0 mg/kg/injection, schedule: Q01DX011 (ip), vehicle: other) was 3 % of control. For the same molecule, the T/C (dose: 15.0 mg/kg/injection, schedule: Q01DX011 (ip), vehicle: other) was 3 % of control, the T/C (dose: 15.0 mg/kg/injection, schedule: Q01DX011 (oral), vehicle: other) was 7 % of control and the T/C (dose: 25.0 mg/kg/injection, schedule: Q01DX011 (ip), vehicle: carboxymethylcellulose (CMC)) was 1 % of control. The T/C [4] was 3 % of control.
In the case of `CS(=O)(=O)OCC(O)C(O)COS(C)(=O)=O` (stereo not drawn), the T/C (dose: 125.0 mg/kg/injection, schedule: Q01DX011 (ip), vehicle: carboxymethylcellulose (CMC)) was 65 % of control, the T/C (dose: 200.0 mg/kg/injection, schedule: Q01DX011 (ip), vehicle: saline) was 66 % of control and the T/C [6] was 20 % of control. For the same molecule, the T/C (dose: 500.0 mg/kg/injection, schedule: Q01DX011 (ip), vehicle: carboxymethylcellulose (CMC)) was 6 % of control and the T/C (dose: 800.0 mg/kg/injection, schedule: Q01DX011 (ip), vehicle: saline) was 17 % of control.
In the case of `Nc1ncnc2c1nc(Br)n2C1CC(O)C(CO)O1` (stereo not drawn), the T/C (dose: 30.0 mg/kg/injection, schedule: Q01DX011 (ip), vehicle: carboxymethylcellulose (CMC)) was 89 % of control, the T/C (dose: 60.0 mg/kg/injection, schedule: Q01DX011 (ip), vehicle: carboxymethylcellulose (CMC)) was 89 % of control and the T/C (dose: 120.0 mg/kg/injection, schedule: Q01DX011 (ip), vehicle: carboxymethylcellulose (CMC)) was 75 % of control. The T/C (dose: 240.0 mg/kg/injection, schedule: Q01DX011 (ip), vehicle: carboxymethylcellulose (CMC)) was 123 % of control.
`CCCCOC(OCCCC)C(OCCCC)OCCCC` was tested, and the T/C (dose: 50.0 mg/kg/injection, schedule: Q01DX011 (ip), vehicle: other) was 105 % of control, the T/C (dose: 100.0 mg/kg/injection, schedule: Q01DX011 (ip), vehicle: other) was 106 % of control and the T/C (dose: 200.0 mg/kg/injection, schedule: Q01DX011 (ip), vehicle: other) was 63 % of control.
For `O=C(O)c1cccc2c3c(cc([N+](=O)[O-])c12)CCCC3`, the T/C (dose: 0.18 mg/kg/injection, schedule: Q01DX011 (ip), vehicle: carboxymethylcellulose (CMC)) was 101 % of control, the T/C (dose: 0.37 mg/kg/injection, schedule: Q01DX011 (ip), vehicle: carboxymethylcellulose (CMC)) was 97 % of control and the T/C [5] was 85 % of control.
For `CCCCn1cnc2c(=S)nc(N)[nH]c21`, the T/C (dose: 0.6 mg/kg/injection, schedule: Q01DX011 (ip), vehicle: carboxymethylcellulose (CMC)) was 57 % of control, the T/C (dose: 1.2 mg/kg/injection, schedule: Q01DX011 (ip), vehicle: carboxymethylcellulose (CMC)) was 35 % of control and the T/C (dose: 1.2 mg/kg/injection, schedule: Q01DX011 (ip), vehicle: olive oil, sesame oil, peanut oil) was 60 % of control. The T/C (dose: 2.5 mg/kg/injection, schedule: Q01DX011 (ip), vehicle: carboxymethylcellulose (CMC)) was 2 % of control and the T/C (dose: 2.5 mg/kg/injection, schedule: Q01DX011 (ip), vehicle: olive oil, sesame oil, peanut oil) was 33 % of control.
In the case of `O=C1CCC(N2C(=O)c3ccccc3C2=O)C(=O)N1` (stereo not drawn), the T/C [6] was 48 % of control and the T/C (dose: 375.0 mg/kg/injection, schedule: Q01DX011 (ip), vehicle: carboxymethylcellulose (CMC)) was 56 % of control.
`Cc1nc(N2CC2)nc(N2CC2)c1[N+](=O)[O-]` was tested, and the T/C (dose: 0.6 mg/kg/injection, schedule: Q01DX011 (ip), vehicle: methylcellulose (MC)) was 47 % of control, the T/C (dose: 1.1 mg/kg/injection, schedule: Q01DX011 (ip), vehicle: methylcellulose (MC)) was 59 % of control and the T/C (dose: 2.25 mg/kg/injection, schedule: Q01DX011 (ip), vehicle: methylcellulose (MC)) was 12 % of control.
`NC1=CC(=O)c2cccnc2C1=O` was tested, and the T/C (dose: 6.5 mg/kg/injection, schedule: Q01DX011 (ip), vehicle: water) was 111 % of control, the T/C (dose: 10.0 mg/kg/injection, schedule: Q01DX011 (ip), vehicle: water) was 87 % of control and the T/C (dose: 15.0 mg/kg/injection, schedule: Q01DX011 (ip), vehicle: water) was 69 % of control.
With `CC(CNC(=O)CCBr)NC(=O)CCBr` (stereo not drawn) the T/C (dose: 37.5 mg/kg/injection, schedule: Q01DX011 (ip), vehicle: carboxymethylcellulose (CMC)) was 79 % of control and 81 % of control, the T/C (dose: 75.0 mg/kg/injection, schedule: Q01DX011 (ip), vehicle: carboxymethylcellulose (CMC)) was 26 % of control and 36 % of control and the T/C (dose: 150.0 mg/kg/injection, schedule: Q01DX011 (ip), vehicle: carboxymethylcellulose (CMC)) was 10 % of control and 19 % of control.
